Results published in PMC8338929, “Acetylation turns leucine into a drug by membrane transporter switching” (Scientific Reports, 2021).

Target: T1, Human OAT3 (SLC22A8) (Homo sapiens, UniProt Q8TCC7)
T1 construct: host or cells: HEK-293
T1 sequence (Q8TCC7 1-542): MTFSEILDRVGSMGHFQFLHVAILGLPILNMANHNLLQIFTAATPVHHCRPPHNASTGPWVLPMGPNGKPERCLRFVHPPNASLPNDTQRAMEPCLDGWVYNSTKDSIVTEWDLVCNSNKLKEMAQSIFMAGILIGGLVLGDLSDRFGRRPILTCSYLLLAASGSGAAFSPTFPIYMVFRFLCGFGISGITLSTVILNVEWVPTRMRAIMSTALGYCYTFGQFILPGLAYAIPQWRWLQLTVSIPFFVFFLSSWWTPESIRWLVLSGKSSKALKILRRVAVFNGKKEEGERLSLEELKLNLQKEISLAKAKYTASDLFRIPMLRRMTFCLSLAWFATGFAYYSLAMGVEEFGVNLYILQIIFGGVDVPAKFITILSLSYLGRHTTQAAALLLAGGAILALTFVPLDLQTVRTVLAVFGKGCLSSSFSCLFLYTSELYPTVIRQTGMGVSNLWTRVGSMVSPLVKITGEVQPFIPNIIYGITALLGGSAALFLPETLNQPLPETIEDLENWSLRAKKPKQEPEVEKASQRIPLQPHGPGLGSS
Test: OAT3-mediated cellular uptake in overexpressing HEK-293 cells
Format: cell-based
Procedure: Cells were grown in DMEM (Gibco 4196, high glucose, without sodium pyruvate) supplemented with MEM non-essential amino acids and 10% fetal bovine serum. Cells were re-fed with fresh medium after attachment (4–6 h post-seeding). Cell were plated at a density of 4 × 10^5/well in 24-well plates coated with poly-D-lysine. Transporter assays were conducted in 400 µL of HBSS supplemented with 10 mM Hepes, pH 7.4
The known probe substrates used as positive controls were 3 μM chlorothiazide for OAT1, 2 μM estrone-3-sulfate for OAT3, 10 µM [^3H]gabapentin for LAT1, 50 µM [^3H]Gly-Sar for PepT1, 500 µM thiophene-2-glyoxylic acid for MCT1. The known inhibitors used as controls for each transporter were 100 μM diclofenac for OAT1 and OAT3, 10 µM JPH203 for LAT1 and 200 µM losartan for PepT1. All incubations were in triplicate and contained 1% (OAT1 and OAT3) or 0.5% DMSO (LAT, PepT1 and MCT1). The duration of uptake was 5 min for OAT1 and OAT3, 3 min for LAT1 and PepT1 and 1 min for MCT1. Assays were performed at 37 °C with no shaking, except MCT1 at room temperature. To determine uptake due to the overexpressed transporter per se, uptake was taken as the difference between accumulation between transfected and nontransfected cells in parallel experiments at the same concentration and time. To terminate uptake the plate was placed on ice and cells washed twice with ice-cold transport buffer. […]

Vmax OAT3 uptake (Michaelis-Menten fit): 138
substrate of OAT3 (uptake) (pH 7.4, 5 min): substrate
Compound: CC(=O)N[C@@H](CC(C)C)C(=O)O [N-acetyl-L-leucine]
